According to ChEMBL document CHEMBL5465560, “Selectivity Literature for EUbOPEN Chemogenomic Library” (2024):

Assays:
[1] = biological target: T1, Myosin light chain kinase family member 4 (Homo sapiens) (UniProt Q86YV6); assay: Selectivity interaction (KinomeScan (DiscoverX)) EUB0001049a MYLK4; details: at 1 µM
T1 sequence (whole entry): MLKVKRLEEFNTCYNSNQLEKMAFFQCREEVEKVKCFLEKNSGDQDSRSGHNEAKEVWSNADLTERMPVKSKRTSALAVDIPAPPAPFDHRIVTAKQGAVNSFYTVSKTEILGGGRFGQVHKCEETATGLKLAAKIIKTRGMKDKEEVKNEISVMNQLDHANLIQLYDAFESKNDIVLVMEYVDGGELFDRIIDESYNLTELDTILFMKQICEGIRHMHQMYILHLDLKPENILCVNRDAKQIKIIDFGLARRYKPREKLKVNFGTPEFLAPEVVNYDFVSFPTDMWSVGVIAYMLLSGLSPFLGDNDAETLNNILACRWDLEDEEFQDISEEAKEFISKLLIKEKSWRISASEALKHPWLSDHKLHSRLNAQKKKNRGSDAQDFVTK

[2] = biological target: T2, Serine/threonine-protein kinase 36 (Homo sapiens) (UniProt Q9NRP7); assay: Selectivity interaction (KinomeScan (DiscoverX)) EUB0001049a STK36; details: at 1 µM
T2 sequence (whole entry): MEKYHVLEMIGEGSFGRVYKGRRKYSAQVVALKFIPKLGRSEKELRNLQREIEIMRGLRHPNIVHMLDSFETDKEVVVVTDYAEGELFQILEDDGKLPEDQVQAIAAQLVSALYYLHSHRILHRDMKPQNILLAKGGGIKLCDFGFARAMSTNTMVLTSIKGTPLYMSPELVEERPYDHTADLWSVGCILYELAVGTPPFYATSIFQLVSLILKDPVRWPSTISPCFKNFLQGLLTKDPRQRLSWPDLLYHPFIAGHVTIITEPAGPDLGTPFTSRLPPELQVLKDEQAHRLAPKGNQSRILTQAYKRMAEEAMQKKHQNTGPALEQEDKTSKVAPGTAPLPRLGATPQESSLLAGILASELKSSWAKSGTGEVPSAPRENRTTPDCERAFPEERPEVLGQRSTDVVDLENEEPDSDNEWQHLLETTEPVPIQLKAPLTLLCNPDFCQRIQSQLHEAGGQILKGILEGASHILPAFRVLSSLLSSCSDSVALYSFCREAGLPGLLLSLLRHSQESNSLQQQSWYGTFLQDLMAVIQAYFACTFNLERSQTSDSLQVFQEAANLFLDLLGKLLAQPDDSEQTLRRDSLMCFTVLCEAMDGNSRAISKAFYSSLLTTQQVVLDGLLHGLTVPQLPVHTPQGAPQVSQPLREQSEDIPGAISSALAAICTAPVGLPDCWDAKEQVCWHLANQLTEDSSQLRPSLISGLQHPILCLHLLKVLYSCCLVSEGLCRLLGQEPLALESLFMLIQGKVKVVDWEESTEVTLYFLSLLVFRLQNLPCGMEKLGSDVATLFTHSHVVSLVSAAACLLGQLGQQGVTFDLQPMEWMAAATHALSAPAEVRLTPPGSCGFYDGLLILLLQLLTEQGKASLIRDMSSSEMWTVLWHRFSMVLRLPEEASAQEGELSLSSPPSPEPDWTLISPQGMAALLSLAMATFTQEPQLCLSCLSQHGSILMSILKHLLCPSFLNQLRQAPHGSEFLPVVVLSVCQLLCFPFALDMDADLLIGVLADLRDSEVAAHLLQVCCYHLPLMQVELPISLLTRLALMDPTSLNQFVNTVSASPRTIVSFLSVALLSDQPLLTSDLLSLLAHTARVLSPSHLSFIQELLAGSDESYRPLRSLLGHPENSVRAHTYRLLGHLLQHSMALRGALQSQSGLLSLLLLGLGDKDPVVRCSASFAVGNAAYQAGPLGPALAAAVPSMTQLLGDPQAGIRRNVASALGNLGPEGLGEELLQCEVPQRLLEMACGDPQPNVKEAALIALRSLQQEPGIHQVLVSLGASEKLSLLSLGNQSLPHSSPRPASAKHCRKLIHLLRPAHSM

[3] = biological target: Platelet-derived growth factor receptor alpha (Homo sapiens, UniProt P16234); assay: Selectivity interaction (KinomeScan (DiscoverX)) EUB0000229b PDGFRA; details: at 10 µM
[4] = biological target: Eukaryotic translation initiation factor 2-alpha kinase 1 (Homo sapiens) (UniProt Q9BQI3); assay: Selectivity interaction (KinomeScan (DiscoverX)) EUB0000092b EIF2AK1; details: at 10 µM
Sequence of Eukaryotic translation initiation factor 2-alpha kinase 1 (Homo sapiens) (Q9BQI3 whole entry): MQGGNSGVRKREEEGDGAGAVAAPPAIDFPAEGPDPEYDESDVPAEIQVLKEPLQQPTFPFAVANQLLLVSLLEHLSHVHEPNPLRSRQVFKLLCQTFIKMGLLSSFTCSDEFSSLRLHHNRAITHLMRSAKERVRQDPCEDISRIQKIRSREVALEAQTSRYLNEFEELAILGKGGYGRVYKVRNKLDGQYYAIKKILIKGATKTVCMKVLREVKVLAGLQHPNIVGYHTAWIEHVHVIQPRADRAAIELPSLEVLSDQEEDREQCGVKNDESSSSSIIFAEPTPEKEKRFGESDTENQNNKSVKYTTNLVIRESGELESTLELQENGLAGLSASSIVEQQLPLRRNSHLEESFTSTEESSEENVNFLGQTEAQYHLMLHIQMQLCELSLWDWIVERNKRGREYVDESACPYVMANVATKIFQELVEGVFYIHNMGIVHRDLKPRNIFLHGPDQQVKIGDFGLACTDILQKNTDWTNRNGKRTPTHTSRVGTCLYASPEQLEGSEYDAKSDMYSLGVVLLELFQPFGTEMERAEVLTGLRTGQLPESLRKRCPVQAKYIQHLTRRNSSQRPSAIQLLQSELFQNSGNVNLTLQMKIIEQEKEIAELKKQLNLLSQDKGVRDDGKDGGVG

Sequence of Platelet-derived growth factor receptor alpha (P16234 whole entry): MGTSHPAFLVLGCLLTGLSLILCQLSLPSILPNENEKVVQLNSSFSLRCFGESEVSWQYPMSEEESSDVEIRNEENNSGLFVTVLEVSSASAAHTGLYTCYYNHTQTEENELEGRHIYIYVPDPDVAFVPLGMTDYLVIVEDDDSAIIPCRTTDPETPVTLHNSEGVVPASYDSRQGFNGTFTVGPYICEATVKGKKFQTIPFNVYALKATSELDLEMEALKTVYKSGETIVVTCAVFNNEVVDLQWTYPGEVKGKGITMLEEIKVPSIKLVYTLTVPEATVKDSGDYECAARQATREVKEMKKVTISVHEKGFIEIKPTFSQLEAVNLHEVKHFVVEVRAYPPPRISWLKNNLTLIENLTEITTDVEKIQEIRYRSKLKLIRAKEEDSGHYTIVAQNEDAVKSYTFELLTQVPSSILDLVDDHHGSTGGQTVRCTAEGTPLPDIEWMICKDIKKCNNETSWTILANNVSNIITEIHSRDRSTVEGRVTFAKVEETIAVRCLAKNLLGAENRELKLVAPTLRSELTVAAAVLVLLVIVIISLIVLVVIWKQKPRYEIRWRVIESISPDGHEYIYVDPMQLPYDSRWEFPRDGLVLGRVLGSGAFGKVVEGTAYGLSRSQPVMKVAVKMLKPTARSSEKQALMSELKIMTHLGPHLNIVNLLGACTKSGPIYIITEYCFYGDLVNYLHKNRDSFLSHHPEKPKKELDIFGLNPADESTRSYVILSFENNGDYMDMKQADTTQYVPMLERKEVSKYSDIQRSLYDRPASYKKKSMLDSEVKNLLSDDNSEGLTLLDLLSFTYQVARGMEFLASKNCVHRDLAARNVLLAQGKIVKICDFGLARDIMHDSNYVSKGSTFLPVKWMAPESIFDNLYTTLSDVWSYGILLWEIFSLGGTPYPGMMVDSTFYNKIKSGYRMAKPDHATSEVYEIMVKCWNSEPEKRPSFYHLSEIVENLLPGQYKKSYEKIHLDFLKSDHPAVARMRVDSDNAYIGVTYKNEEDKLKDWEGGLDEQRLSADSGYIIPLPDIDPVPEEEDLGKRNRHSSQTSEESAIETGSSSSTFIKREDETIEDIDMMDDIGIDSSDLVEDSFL

COc1cc(Nc2nc(C)cc(-c3cnn4nc(OC)ccc34)n2)cc(C(F)(F)F)c1 was tested, and the % of control [1] was 100% and the % of control [2] was 99%.
In the case of COc1cc(N(C)c2ccnc3ccc(C(F)(F)F)cc23)cc(OC)c1OC, the % binding [3] is reported as 98%.
For CCC(=O)N1CCN(c2ccc(-n3c(=O)ccc4cnc5ccc(-c6cnc7ccccc7c6)cc5c43)cc2C(F)(F)F)CC1, the % of control [4] was 57%.
